# Results reported in ChEMBL document CHEMBL1201862, “PubChem BioAssay data set” (2004).
# Several values for one entry are separate records, joined by “and”; a condition that tells them apart may be missing. Equal entries are not always repeated. Activity calls are given as the source filed them.
# How the values were obtained:
# [1] = test system: P388/ADR; test: cells; type: functional; details: Mus musculus
# [2] = test system: SN12K1; test: cells; type: functional; details: Homo sapiens
# [3] = test system: P388; test: cells; type: functional; details: Mus musculus
# [4] = Luminescence Cell-Based Dose Retest to Confirm Inhibitors of Cancer Stem Cells. [Related pubchem assays (depositor defined):AID2717, AID2721]; type: functional; details: Homo sapiens
# [5] = biological target: Cytochrome P450 3A4 (Homo sapiens, UniProt P08684);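 also: CYP3A4 tested as one member of a cytochrome P450 panel screen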
# Chain of Cytochrome P450 3A4 (P08684 whole entry): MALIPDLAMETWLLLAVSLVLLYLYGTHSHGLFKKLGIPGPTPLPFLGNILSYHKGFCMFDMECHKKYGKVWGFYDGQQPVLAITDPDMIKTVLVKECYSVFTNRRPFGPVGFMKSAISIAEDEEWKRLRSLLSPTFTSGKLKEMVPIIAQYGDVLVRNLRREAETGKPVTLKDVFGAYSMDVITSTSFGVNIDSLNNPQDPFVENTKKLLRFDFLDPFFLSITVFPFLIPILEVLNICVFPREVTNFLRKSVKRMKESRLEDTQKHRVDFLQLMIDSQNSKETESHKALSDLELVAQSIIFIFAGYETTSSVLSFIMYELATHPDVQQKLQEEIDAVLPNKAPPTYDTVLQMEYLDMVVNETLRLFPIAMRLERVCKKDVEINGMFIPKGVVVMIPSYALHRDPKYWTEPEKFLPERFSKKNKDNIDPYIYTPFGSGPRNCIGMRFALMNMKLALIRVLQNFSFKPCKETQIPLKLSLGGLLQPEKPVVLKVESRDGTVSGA
# [6] = Luminescence Cell-Based Dose Confirmation HTS to Identify Activators of 5'UTR Stem-Loop Driven Alpha-Synuclein mRNA Translation in H4 Neuroglioblastoma Cells. [Related pubchem assays: 1829 (Project Summary), 1814 (Primary HTS)]; type: functional
# [7] = Luminescence Cell-Based Dose Response HTS to Identify Activators of Luciferase Translation or Activity in H4 […] Cells. [Related pubchem assays: 1829 (Project Summary), 1814 (Primary HTS)]; type: functional
# [8] = test system: H4; test: Luminescence Cell-Based Dose Response HTS to Identify Activators of 5'UTR Stem-Loop Driven Prion Protein mRNA Translation in H4 Neuroglioblastoma Cells. [Related pubchem assays: 1829 (Project Summary), 1814 (Primary HTS)]; type: functional; details: Homo sapiens
# [9] = biological target: Cytochrome P450 2C9 (Homo sapiens, UniProt P11712)
# Chain of Cytochrome P450 2C9 (P11712 whole entry): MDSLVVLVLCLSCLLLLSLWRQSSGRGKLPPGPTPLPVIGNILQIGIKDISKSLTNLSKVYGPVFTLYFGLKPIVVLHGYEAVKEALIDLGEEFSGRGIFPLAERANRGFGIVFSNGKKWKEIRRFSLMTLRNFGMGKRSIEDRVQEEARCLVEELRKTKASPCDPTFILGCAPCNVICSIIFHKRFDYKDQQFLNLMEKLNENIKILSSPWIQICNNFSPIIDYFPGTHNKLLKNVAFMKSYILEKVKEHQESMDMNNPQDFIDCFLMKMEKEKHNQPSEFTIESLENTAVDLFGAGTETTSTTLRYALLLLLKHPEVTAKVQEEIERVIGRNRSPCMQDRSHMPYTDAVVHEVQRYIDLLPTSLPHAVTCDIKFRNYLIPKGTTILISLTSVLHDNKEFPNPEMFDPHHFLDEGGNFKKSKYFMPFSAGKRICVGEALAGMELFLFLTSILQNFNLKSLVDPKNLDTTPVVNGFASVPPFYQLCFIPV
# [10] = biological target: T1, Heat shock factor protein 1 (Mus musculus, UniProt P38532); test: enhancement of HSF1-driven luciferase signal – cell-based, NIH3T3, luminescence, dose retest, confirmation (AID 435004); type: functional;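 also: stress induced by proteasome inhibitor MG132 added 30 min after compound; luciferase reporter driven by HSF1 response element in NIH3T3 cells; actives raise luminescence as potentiators of the MG132 stress response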
# T1 sequence (P38532 whole entry): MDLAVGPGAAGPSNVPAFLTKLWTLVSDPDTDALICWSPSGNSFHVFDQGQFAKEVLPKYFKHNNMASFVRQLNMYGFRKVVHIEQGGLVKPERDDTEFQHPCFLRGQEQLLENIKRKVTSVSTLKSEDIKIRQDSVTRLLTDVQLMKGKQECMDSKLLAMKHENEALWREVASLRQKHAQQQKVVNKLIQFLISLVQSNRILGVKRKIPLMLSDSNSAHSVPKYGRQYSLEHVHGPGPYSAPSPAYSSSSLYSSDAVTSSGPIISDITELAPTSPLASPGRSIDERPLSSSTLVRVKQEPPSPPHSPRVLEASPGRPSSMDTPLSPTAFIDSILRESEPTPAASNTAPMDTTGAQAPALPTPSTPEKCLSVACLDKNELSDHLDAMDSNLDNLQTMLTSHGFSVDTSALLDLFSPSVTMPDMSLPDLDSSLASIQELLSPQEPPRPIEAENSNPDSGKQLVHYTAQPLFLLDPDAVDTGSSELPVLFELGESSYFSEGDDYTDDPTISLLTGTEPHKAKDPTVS
# [11] = biological target: T2, Corticotropin-releasing factor receptor 2/Corticotropin-releasing factor-binding protein (Homo sapiens, UniProt P24387+Q13324); test: Dose Response confirmation of uHTS hits for small molecule antagonists of the CRF-binding protein and CRF-R2 receptor complex.; type: functional; details: read-out: IC50_Mean
# T2 sequence (Q13324 whole entry): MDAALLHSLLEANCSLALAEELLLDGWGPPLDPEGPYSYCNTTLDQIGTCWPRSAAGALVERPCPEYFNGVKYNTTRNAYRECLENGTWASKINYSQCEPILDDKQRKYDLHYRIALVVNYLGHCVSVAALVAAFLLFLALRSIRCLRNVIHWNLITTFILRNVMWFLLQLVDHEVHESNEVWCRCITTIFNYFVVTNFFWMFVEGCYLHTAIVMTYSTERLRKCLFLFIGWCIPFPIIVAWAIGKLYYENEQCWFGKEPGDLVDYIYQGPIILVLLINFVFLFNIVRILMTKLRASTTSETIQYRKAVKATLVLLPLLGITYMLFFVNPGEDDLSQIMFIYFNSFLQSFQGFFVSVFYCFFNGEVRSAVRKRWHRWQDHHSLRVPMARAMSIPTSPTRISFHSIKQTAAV
# T2 sequence (P24387 whole entry): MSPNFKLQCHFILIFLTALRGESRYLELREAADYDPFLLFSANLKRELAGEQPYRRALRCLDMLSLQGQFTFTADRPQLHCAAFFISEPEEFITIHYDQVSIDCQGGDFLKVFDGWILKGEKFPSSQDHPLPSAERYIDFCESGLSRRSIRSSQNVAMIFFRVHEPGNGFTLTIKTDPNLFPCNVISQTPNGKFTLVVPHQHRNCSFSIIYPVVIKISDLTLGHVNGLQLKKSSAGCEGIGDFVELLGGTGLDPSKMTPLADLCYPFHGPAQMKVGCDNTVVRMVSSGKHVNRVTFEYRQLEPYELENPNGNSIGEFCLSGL
# [12] = biological target: T2, Corticotropin-releasing factor receptor 2/Corticotropin-releasing factor-binding protein; test: activators of CRF receptor 2 with binding protein – uHTS hits, confirmation (AID 602473); type: functional; details: read-out: EC50_Mean
# [13] = biological target: T3, Cytochrome P450 1A2 (Homo sapiens, UniProt P05177);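 also: PubChem cytochrome P450 panel assay, CYP1A2 panel member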
# T3 sequence (P05177 whole entry): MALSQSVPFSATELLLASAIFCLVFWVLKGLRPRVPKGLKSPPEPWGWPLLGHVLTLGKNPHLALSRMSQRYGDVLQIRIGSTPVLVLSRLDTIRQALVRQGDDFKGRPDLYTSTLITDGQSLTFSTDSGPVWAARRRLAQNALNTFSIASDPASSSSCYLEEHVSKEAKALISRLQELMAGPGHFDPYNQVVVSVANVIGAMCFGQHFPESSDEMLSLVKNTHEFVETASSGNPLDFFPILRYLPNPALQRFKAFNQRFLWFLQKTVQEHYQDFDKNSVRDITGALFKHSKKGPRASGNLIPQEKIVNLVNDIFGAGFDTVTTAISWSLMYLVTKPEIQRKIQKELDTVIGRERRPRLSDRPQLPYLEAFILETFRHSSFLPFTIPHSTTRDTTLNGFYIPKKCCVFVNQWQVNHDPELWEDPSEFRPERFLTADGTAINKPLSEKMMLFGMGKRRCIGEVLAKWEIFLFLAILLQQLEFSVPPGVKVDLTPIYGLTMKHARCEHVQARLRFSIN
smiles,measurement,setting,value
CS(=O)(=O)OCCCNCCCOS(C)(=O)=O,GI50,[1],392 µM (inactive)
same,GI50,[2],753 µM (inactive)
same,GI50,[3],418 µM (inactive)
O=C(CN(c1ccc(Cl)cc1)S(=O)(=O)c1ccc(Cl)c([N+](=O)[O-])c1)NCCc1ccc(F)cc1,AC50,[4],2.15 µM (active)
C[C@]12CC[C@H](OC3OC(CO)C(O)C(O)C3O)C[C@H]1CC[C@@H]1[C@@H]2CC[C@]2(C)[C@@H](C3=CCOC3=O)CC[C@]12O (stereo not given in full) [ACTODIGIN],GI50,[1],6.12 µM (inactive)
same,GI50,[2],11 µM (inactive)
same,GI50,[3],7.76 µM (inactive)
O=c1c(-c2ccccc2)nc2cnc(N3CCOCC3)nc2n1-c1ccccc1,AC50,[5],20 µM (inconclusive)
COc1ccc2c(c1)[nH]c1c(=O)n(/N=C/C3C(C)C=C(C)CC3C)c(=O)[nH]c12 (stereo not given),AC50,[4],> 100 µM (inactive)
Cc1cc(C)nc(Nc2n[nH]c(COc3ccccc3)n2)n1,EC50,[6],4.85 µM (active)
same,EC50,[7],21.8 µM (active)
same,EC50,[8],> 120 µM (not active)
Cc1cc(/C=C(\C#N)C(=O)NCC2CCCO2)c(C)n1-c1ccc(Cl)cc1 (stereo not given),EC50,[6],10 µM (active)
same,EC50,[7],30.1 µM (active)
same,EC50,[8],8.94 µM (active)
O=C(CCl)Nc1cccc(S(=O)(=O)NC2=NCCC2)c1,EC50,[6],45.1 µM (active)
same,EC50,[7],62.6 µM (active)
same,EC50,[8],> 120 µM (not active)
COc1ccc(C(=O)OCc2csc(C)n2)c(O)c1,EC50,[6],40.5 µM (active)
same,EC50,[7],> 120 µM (not active)
same,EC50,[8],79.1 µM (active)
Nc1ncnc2c1nc(Cl)n2[C@@H]1O[C@@H]2COP(=O)(O)O[C@H]2[C@H]1O [TOCLADESINE],GI50,[1],4.53 µM (inactive)
same,GI50,[2],7.26 µM (inactive)
same,GI50,[3],36.7 µM (inactive)
Cn1cnnc1SCC(=O)n1c2ccccc2c2ccccc21,AC50,[5],25.1 µM (inconclusive)
same,AC50,[9],0.00562 µM (inconclusive)
CC1CC(C)(O)C2C3(C)CCCC2(COC3=O)C12CCC1(CCOC1=O)O2 (stereo not given),GI50,[1],141 µM (inactive)
same,GI50,[2],> 250 µM (inactive)
same,GI50,[3],> 250 µM (inactive)
COc1ccc(CNc2nc3nc4c(c(O)n3n2)CCC4)cc1,AC50,[5],39.8 µM (inconclusive)
same,AC50,[9],22.4 µM (inconclusive)
O=C1c2ccccc2C(O)(C(=O)O)C1(O)CC=C(Cl)Cl (stereo not given),GI50,[1],> 70.3 µM (inactive)
same,GI50,[2],> 125 µM (inactive)
same,GI50,[3],> 125 µM (inactive)
Clc1ccc(-n2cc(COCc3ccccc3)nn2)cc1,EC50,[10],> 260 µM (inconclusive)
same,IC50,[11],> 47.1 µM (inactive)
same,EC50,[12],> 53 µM (inactive)
CC(=O)Nc1ccc(S(=O)(=O)N/N=C/c2ccc(C)s2)cc1,EC50,[6],5.39 µM (active)
same,EC50,[7],33.8 µM (active)
same,EC50,[8],53.5 µM (active)
C[C@H]1CN([C@@H](C)CO)C(=O)Cc2cc(NC(=O)CCC(F)(F)F)ccc2O[C@H]1CN(C)Cc1ccc(-c2ccccc2)cc1,AC50,[4],4.88 µM (active)
OCC1OC(n2cnc3c2NC=NC[C@H]3O)C(O)C1O (stereo not given in full),GI50,[1],> 366 µM (inactive)
same,GI50,[2],224 µM (inactive)
same,GI50,[3],> 366 µM (inactive)
O=C(O)C(Cc1cccs1)NC(=O)C(F)(F)F (stereo not given),GI50,[1],> 100 µM (inactive)
same,GI50,[2],> 100 µM (inactive)
same,GI50,[3],> 57.9 µM (inactive)
COCCNC(=O)COc1ccc(OCCNC[C@@H](O)COc2ccccc2)cc1,AC50,[5],31.6 µM (inconclusive)
CC1(C)N=C(N)N=C(N)N1c1ccc(CCc2ccccc2)cc1,GI50,[1],22.2 µM (inactive)
same,GI50,[2],0.533 µM (active)
same,GI50,[3],< 0.01 µM (active)
CC1CCN(S(=O)(=O)c2ccc3c(c2)NC(=O)CS3)CC1,IC50,[11],> 47.1 µM (inactive)
same,EC50,[12],> 53 µM (inactive)
CN(CC(=O)Nc1ccc(Cl)c(Cl)c1)CC(=O)Nc1ccc2c(c1)OCO2,AC50,[4],10.2 µM (active)
CCN1C(=O)[C@H]2[C@H]3[C@H](O)[C@H](O)C/C(=N/O[C@@H](C)c4cn([C@H](CO)Cc5ccccc5)nn4)[C@@H]3CC[C@@H]2C1=O,AC50,[5],3.16 µM (inconclusive) and 5.01 µM (inconclusive)
CC(C)c1oc(=O)cc2c1C(O)C1OC(=O)C3(C)C(O)C4OC4C2(C)C13 (stereo not given) [NAGILACTONE],GI50,[1],2.52 µM (inactive)
same,GI50,[2],1.46 µM (inactive)
same,GI50,[3],0.365 µM (active)
Cc1ccccc1CSc1ccc(-c2ccc3c(c2)OCO3)nn1,AC50,[4],6.68 µM (active)
COCC(=O)N1CCC[C@@]2(CCN(Cc3ccc(C#N)cc3)C2)C1,AC50,[5],12.6 µM (inconclusive)
COc1ccc(/C=N/OCc2nc3c4c(ncn3n2)Oc2ccc3ccccc3c2C4c2ccccc2)cc1 (stereo not given),AC50,[5],39.8 µM (inconclusive)
same,AC50,[9],1.26 µM (inconclusive)
C/C(=N/NC(=O)c1ccoc1C)C12CC3CC(CC(C3)C1)C2,EC50,[6],> 120 µM (not active)
same,EC50,[7],> 120 µM (not active)
same,EC50,[8],42.6 µM (active)
N=C(Nc1ccc(I)cc1)NC1C2CC3CC(C2)CC1C3 (stereo not given),AC50,[13],39.8 µM (inconclusive)
same,AC50,[5],15.8 µM (inconclusive)
O=c1onc2cnc3ccccc3n12,AC50,[5],31.6 µM (inconclusive)
same,AC50,[9],39.8 µM (inconclusive)
CCC(=O)Nc1ccc(NC(=O)c2oc3ccccc3c2C)cc1,IC50,[11],> 47.1 µM (inactive)
same,EC50,[12],> 53 µM (inactive)
CC(C)CCCC(C)[C@H]1CCC(C2C[C@@H](O)[C@@H]3CC(O)[C@@H](O)C[C@]3(CO)C2=O)[C@]1(C)CCO (stereo not given in full),GI50,[1],27 µM (inactive)
same,GI50,[2],18.7 µM (inactive)
same,GI50,[3],17.5 µM (inactive)
CC(=O)Nc1ccc(OCC(O)CN2CCN(c3cc(Cl)ccc3C)CC2)cc1 (stereo not given),AC50,[4],1.77 µM (active)
CCCCCCCCCCCCOCCCOP(=O)([O-])OCC[N+](C)(C)C,GI50,[1],> 100 µM (inactive)
same,GI50,[2],> 100 µM (inactive)
same,GI50,[3],27.9 µM (inactive)
CC(=O)NC1=C(C#N)C(c2ccccc2)c2c(ccc3ccccc23)O1 (stereo not given),AC50,[4],0.733 µM (active)
CCn1c(=O)c(C(=O)O)c(Cl)c2cc3c(cc21)OCO3,GI50,[1],> 100 µM (inactive)
same,GI50,[2],> 100 µM (inactive)
same,GI50,[3],> 100 µM (inactive)
CCN1CCN(/C=N/c2nc(C)cs2)CC1,EC50,[6],14.2 µM (active)
same,EC50,[7],51.9 µM (active)
same,EC50,[8],> 120 µM (not active)
